Consider three compounds from patent publication US20220031654A1, “Standardized Bioflavonoid Composition for Regulation of Homeostasis of Host Defense Mechanism” (priority 2020, published 2022).

The test system of experiment [1] is prostaglandin endoperoxide synthase. Particulars: Kalkbrenner et al. 1992; read-out: IC50, inhibition of prostaglandin endoperoxide synthase; cited from earlier work.
In experiment [2] the test system is COX-1. Particulars: (+)-catechin isolated from the bark of Ceiba pentandra; Noreen et al. 1998; read-out: IC50, COX-1 inhibition; cited from earlier work.
For experiment [3], the system named is cox-2 gene transcription in human colon cancer DLD-1 cells. Conditions: Mutoh et al. 2000, read-out: IC50, suppression of cox-2 gene transcription; cited from earlier work.
In experiment [4] the test system is COX-2. Particulars: commercially available pure (+)-catechin; Noreen et al. 1998; cited from earlier work.
The subject of experiment [5] is HMGB1. The experiment in a line: Hyperoxia plus PA infection, extracellular HMGB1 in lung lavage fluids. In kind it is in vivo, mice. Conditions: RES 50 mg/kg, UP446 250 mg/kg. From the text:
Accumulation of extracellular HMGB1 in the airways can compromise innate immunity, leading to an impaired ability to clear invading pathogens and apoptotic neutrophils. This can subsequently cause acute respiratory tract infections, lung injury and even death (Entezari et al., 2012; Patel et al., 2013). To determine whether UP446-attenuated acute lung injury in bacterially infected mice exposed to hyperoxia is due to its impact on the accumulation of extracellular HMGB1 in the airways, the levels of HMGB1 were measured in the lung lavage fluids. As shown previously, prolonged exposure of these mice to hyperoxia followed by microbial infection increased the accumulation of HMGB1 in the airways. […] This elevation can be reduced by pretreatment with either resveratrol (RES) or UP446. […] This correlates with the significant enhanced ability of UP446 to improve host defense mechanisms against microbial infection in the respiratory system.

The test system of experiment [6] is Pseudomonas aeruginosa. The experiment in a line: Hyperoxia plus PA infection, bacterial load in lung homogenate. In kind it is in vivo, mice. Particulars: RES 50 mg/kg, UP446 250 mg/kg; hyperoxia and PA.
For experiment [7], the system named is BAL total protein. The experiment in a line: Hyperoxia plus PA infection, total protein in lung lavage fluid. Particulars: RES 50 mg/kg, UP446 250 mg/kg; >90% oxygen 48 hours, 24 hours after PA.
Protocol: To investigate the effects of regulating natural host defense homeostasis, mice were treated with the bioflavonoid composition, UP446, at 250 mg/kg orally for seven days prior to being exposed to >90% oxygen for 48 hours (with continued UP446 treatment) before being inoculated with microbial Pseudomonas aeruginosa (PA). Mice were euthanized 24 hours after bacterial inoculation, the lungs were lavaged, and total protein content was determined from the lung lavage fluid.
Experiment [8] has as its system Pseudomonas aeruginosa. The experiment in a line: Hyperoxia plus PA infection, bacterial load in the airways. Conditions: RES 50 mg/kg, UP446 250 mg/kg; hyperoxia and PA.
Protocol: To investigate the effects of regulating natural host defense homeostasis, mice were treated with the bioflavonoid composition, UP446, at 250 mg/kg orally for seven days prior to being exposed to >90% oxygen for 48 hours (with continued UP446 treatment) before being inoculated with microbial Pseudomonas aeruginosa (PA).
For experiment [9], the system named is TNF-α. Kind of experiment: LPS-induced acute lung injury, serum TNF-α ELISA. It is filed as in vivo, Sprague Dawley rats. Particulars: UP446 250 mg/kg; SB 500 mg/kg. The method, then: The presence of TNF-α in undiluted rat serum was measured using the rat TNF-α Quantikine ELISA kit from RandD Systems (product #: RTA00) as follows: undiluted serum was added to a microplate coated with TNF-α antibody. […] The washing was repeated, and enzyme substrate was added to the plate.

The test system of experiment [10] is IL-1β. Kind of experiment: LPS-induced acute lung injury, serum IL-1β ELISA. It is filed as in vivo, Sprague Dawley rats. Particulars: UP446 250 mg/kg; SB 500 mg/kg. The method, then: The presence of IL-10 in undiluted rat serum was measured using the Rat IL-10 Quantikine ELISA kit from RandD Systems (product #: RLB00) as follows: undiluted serum was added to a microplate coated with IL-1β antibody. […] The washing was repeated, and enzyme substrate was added to the plate.

The subject of experiment [11] is LPS-induced acute lung injury. The experiment in a line: LPS-induced acute lung injury, lung histopathology (H&E). It is filed as in vivo, Sprague Dawley rats. The method, then: The severity of lung damage as a result of intratracheal LPS was assessed using HandE-stained lung tissue. The left lobe of the lung was used for the histopathology analysis.
Experiment [12] relates to LPS-induced endotoxemia and sepsis. Kind of experiment: LPS-induced sepsis model, survival (UP446 study). In kind it is in vivo, CD-1 mice. Conditions: UP446 250 mg/kg, Sodium Butyrate 500 mg/kg oral. The method, then: CD-1 mice and Sprague Dawley rats were purchased from a USDA approved vendor. Eight weeks old male CD-1 mice and SD rats were purchased form Charles River Laboratories, Inc. (Wilmington, Mass.). Animals were acclimated upon arrival and used for the study. They were housed in a temperature-controlled room (71-72° F.) on a 12-hour light-dark cycle and provided with feed and water ad libitum.
This model used survival rate of animals as the end point measurement (Wang et al., 1999). Lipopolysaccharide (LPS) is an integral component of the outer membrane of gram-negative bacteria and a major contributing factor in the initiation of a generalized inflammatory process that may lead to endotoxin shock. It is a state mediated principally by macrophages/monocytes and is attributed to excessive production of several early phase cytokines such as TNF-α, IL-1, IL-6 and gamma interferon (IFN-γ) as well as a late-stage mediator, HMGB1. Following a median lethal dose of LPS (25 mg/kg) administration dissolved in phosphate-buffered saline (PBS; Lifeline, Lot #07641), animals develop endotoxemia and HMGB1 would be detected in the serum at 8 hours and reach to a peak and plateau levels from 16 to 32 hours after LPS. […] In the current study, we monitored the mice for 4 days after LPS injection. […]
The survival rate was calculated as: 100-[(deceased mice/total number of mice)×100]%.

Experiment [13] relates to MIP-2/CINC-3. Kind of experiment: LPS-induced acute lung injury, lung homogenate MIP-2/CINC-3 ELISA. Particulars: UP446 250 mg/kg; SB 500 mg/kg.
Protocol: (§1) In this study, we treated Sprague Dawley rats with the test materials orally for 7 days before model induction with LPS. On the 8th day, an hour after oral treatment, LPS was instilled intratracheally (i.t.) at 10 mg/kg dissolved in 0.1 mL/100 g PBS to each rat. The normal control rats received the same volume i.t. of PBS only.
We sacrificed surviving animals 24 hours after intratracheal LPS administration. At necropsy, the bronchoalveolar lavage (BAL) was collected by intratracheal injection of 1.5 mL PBS into the right lobe of the lung, followed by a gentle aspiration at least 3 times. Pooled, recovered fluid was centrifuged at 1,500 rpm for 10 min at 4° C., and was used to measure cytokines (e.g. IL-6) and pulmonary protein levels. This same right lobe was collected for tissue homogenization from each rat for MIP-2/CINC-3 activity analysis.
The plate was subjected to 5 washes before an enzyme-linked polyclonal CINC-3 was added and allowed to bind for 2 hours. The wells were washed another 5 times before a substrate solution was added to the wells and the enzymatic reaction was allowed to commence for 30 minutes at room temperature protected from light. […] The absorbance of each well was read at 450 nm (with a 580 nm correction) and compared to a standard curve of CINC-3 in order to approximate the amount of CINC-3 in each rat lung homogenate sample.
Experiment [14] relates to LPS-induced endotoxemia and sepsis. The experiment in a line: LPS-induced sepsis model, composition versus its constituents, Colby synergy. It is filed as in vivo, CD-1 mice. Conditions: for Mortality rate / Survival rate: SB 500, UP894-II 250, RM405 200, RM406 50 mg/kg. How it is done:
On the 8th day, mice were injected intraperitoneally (i.p.) with 25 mg/kg LPS dissolved in PBS at 10 mL/kg. Mice in the UP894-II-treated group received a daily dose of UP894-II at 250 mg/kg. All mice continued to receive the treatment daily for the duration of study, which was completed on the 6th day post LPS injection. Following a median lethal dose of LPS (25 mg/kg) by i.p. administration, animals are expected to develop sepsis within a few hours. If untreated, mice would start to die within 24 hours. Animals were observed hourly. In the current study, we monitored the mice for 6 days after LPS injection.
For the blending of these plant extracts to have unexpected synergy, the observed inhibition needs to be greater than the calculated value.
The survival rate was calculated as: 100-[(deceased mice/total number of mice)×100]%. *p≤0.05

Experiment [15] concerns CRP. Particulars: UP446 250 mg/kg; SB 500 mg/kg.
Protocol: as §1
We sacrificed surviving animals 24 hours after intratracheal LPS administration. At necropsy, the bronchoalveolar lavage (BAL) was collected by intratracheal injection of 1.5 mL PBS into the right lobe of the lung, followed by a gentle aspiration at least 3 times. Pooled, recovered fluid was centrifuged at 1,500 rpm for 10 min at 4° C., and was used to measure cytokines (e.g. IL-6) and pulmonary protein levels.
The presence of CRP in rat BAL diluted 1:1,000 was measured using the C-Reactive Protein (PTX1) Rat ELISA kit from Abcam (product #: ab108827) as follows: 1:1,000 diluted BAL was added to a microplate coated with CRP antibody. After 2 hours on a plate shaker at room temperature, CRP in BAL was bound to the plate and the plate was thoroughly washed. […] After developing for 10 minutes at room temperature, a stop solution was added, and the absorbance was read at 450 nm. The concentration of CRP was calculated based on the absorbance readings of an CRP standard curve.
Where [16] appears, read: 144 hr post LPS (end of observation).

“And” between values parts separate entries of the source, which are not always exact repeats. Equal entries are not always repeated.

As for `Oc1cc(O)c2c(c1)OC(c1ccc(O)c(O)c1)C(O)C2` (stereo not shown) [Catechin], the concentration for half-maximal inhibition (IC50) in experiment [1] was 40 µM; in experiment [2], 80 µM; in experiment [3] it was 415 µM. The “selectivity for COX-2” value in experiment [4] was “no selectivity for COX-2”.
Take `Oc1ccc(C=Cc2cc(O)cc(O)c2)cc1` [RES, resveratrol]: the “reduction in the level of HMGB1 expression vs vehicle-treated hyperoxia and infection” value in experiment [5] was determined as 74.9%. For the same compound, the “HMGB1 expression in airways (Mean ± SD)” value in experiment [5] (densitometry arbitrary unit, hyperoxia and PA) was 29.2 ± 16.5 AU. For the same compound, in [6], the “bacterial load in lung homogenate (Mean ± SD)” value is recorded as 0.02 ± 0.02 ×10^5 CFU/mL. The “BAL Total protein content (Mean ± SE)” value in experiment [7] was found to be 526.0 ± 15.5 µg/mL. In addition, the “bacterial load in the airways (Mean ± SD)” value in [8] is 2.4 ± 0.6 ×10^5 CFU/mL.
`CCCC(=O)[O-].[Na+]` [Sodium Butyrate]: in experiment [9], the “reduction in serum TNF-α level against the vehicle control” value amounted to 67.9%. The “reduction in serum IL-1β level (printed IL-10 for UP446)” value in experiment [10] worked out at 65.3%. For the same compound, the “changes in the histopathology evaluation relative to vehicle” value in experiment [11] (SB 500 mg/kg, UP446 low-dose 125 mg/kg) is “minimal changes”. Also, the “Overall Lung Damage Severity” value in experiment [11] (Score 0-4, UP446 high dose 250 mg/kg, Sodium Butyrate 500 mg/kg) is given as 3.05 ± 0.42. Moreover, in experiment [11] (scores 0-4, UP446 high dose 250 mg/kg, Sodium Butyrate 500 mg/kg), the “Infiltration of PMN cell” value was 2.75 ± 0.78. For the same compound, the “Survival Rate (%) after 82 hr” value in experiment [12] came out at 50%. The “reduction in lung homogenate CINC-3 level vs vehicle” value in experiment [13] is 17.7%. Moreover, the Mortality rate in experiment [14] (24 hr post LPS) was 15.38%; in experiment [14] (36 hr post LPS) it was 46.15%; in [14] (48 hr post LPS), 53.85%; in experiment [14] (60 hr post LPS), 61.54%; in experiment [14] (72 hr post LPS) it was 61.54%; in [14] (96 hr post LPS), 69.23%. Besides, the Mortality rate in experiment [14] (120 hr post LPS) is given as 69.23%; in experiment [14] (setting [16]), 69.23%; in experiment [14] it was 0.00%. For the same compound, the Survival rate in experiment [14] (24 hr post LPS) was 84.6%; in experiment [14] (36 hr post LPS, listed as SB), 53.9% and 53.8%; in experiment [14] (48 hr post LPS), 46.2%; in [14] (60 hr post LPS) it was 38.5%; in experiment [14] (72 hr post LPS, listed as SB) it was 38.5%; in experiment [14] (96 hr post LPS), 30.8%. In addition, the Survival rate in experiment [14] (120 hr post LPS) is 30.8%; in experiment [14] (setting [16]) it was 30.8%; in [14], 100.0%. In [14] (up to 144 hours post LPS, N=13), the “Deceased (total)” value worked out at 9. Also, the “Survived (total)” value in [14] (up to 144 hours post LPS, N=13) was found to be 4. The “reduction of BAL CRP level relative to vehicle” value in experiment [15] is recorded as “moderate reduction in CRP level without statistical significance”.
